Experimental findings from US9040527B2, “Pyrimidinediamine kinase inhibitors” (Rigel Pharmaceuticals, Inc., priority 2008, dated 2015) are described below.

A value given as a limit tells only on which side of the number the result lay.

The target of assay [1] is T1, PLK1 (Homo sapiens, UniProt P53350). The assay is described as follows: In vitro PLK1 ELISA assay (biochemical). Set-up: purchased Cell Signalling 7728. As for the experimental part:
(§1) Inhibition of PLK1 was measured by quantifying phosphorylation of PLK1 substrates using chemiluminescent and fluorogenic probes. The protocols for these assays are provided below.
In Vitro PLK1 ELISA Assay
1. Preparation of Assay Plates.
Costar 96-well black or white solid flat high binding plates (Fisher Scientific, Catalog No. 07-200-591) were coated with Neutravidin (Pierce, Catalog No. 31000) using the following protocol. A 0.01 mg/mL solution of Neutravidin in 1× Phosphate Buffered Saline (“PBS”, Cellgro/Mediatech, Catalog No. 21-040-CV) was added to each well (100 μL/well) and was incubated for 18-24 hours at 4° C. The plates were then washed with 1× Phosphate Buffer Saline—Tween (“PBST”, Calbiochem, Catalog No. 524653) buffer using a plate washer. The plates were treated with bovine serum albumin (“BSA”, Sigma, Catalog No. A7906) to block non-specific binding sites, by adding a 2% BSA solution in 1×PBST buffer to each well (100 μL/well) and incubating the plates for 1 hour at room temperature. The plates were then washed with 1×PBST buffer using a plate washer.
2. PLK1-Catalyzed Phosphorylation Reaction
An aqueous buffer solution A having the following composition was prepared:
20 mM HEPES (Cellgro/Mediatech, Catalog No. 25-060Ci), pH 7.2;
5 mM MgCl2 (Sigma, Catalog No. M2393);
2 mM MnCl2.4H2O (EM Biosciences, Catalog No. MX0185-2);
1 mM Dithiothreitol (“DTT”, Fluka, Catalog No. B4184).
Next, the substrate solution B was prepared by adding 2.6 μL of 10 mM ATP (Sigma, Catalog No. A7699) and 6.4 μL of the 1 mM PLK1 substrate, CHK2-derived peptide Biotin-SSLETVSTQELYSIP (custom synthesized at Anaspec) SEQ ID: No. 1, to 4691 μL of the buffer solution A. The concentration of the ATP in solution B is 5.44 μM (1.36×); the concentration of the PLK1 substrate in solution B is 1.36 μM (1.36×).
Compound solutions C of varying concentrations for each compound were prepared by dissolving each compound in dimethylsulfoxide (DMSO, Sigma, Catalog No. D2650) to varying concentrations, followed by adding 2 μL of each solution to 38 μL of the buffer solution A, thereby forming 10× compound solutions in 5% DMSO.
A PLK1 solution D was prepared by adding 8.4 μL of 100 μg/mL PLK1 (Cell Signalling, Catalog No. 7728) to 1392 μL of the buffer solution A, thereby forming 0.6 μg/mL (6×) PLK1 solution.
The aqueous 1.36× substrate solution B was added to each well (44 μL/well) resulting in binding of the substrate to the plate via biotin/neutravidin interaction. Then 10× compound solutions C for each tested compound at each tested concentration were added to each well (6 μL/well). Next, 6×PLK1 solution D was added to each well (10 μL/well).
The final concentrations of tested compounds in each well were 10 μM, 3.3 μM, 1.1 μM, 0.36 μM, 0.12 μM, 0.04 μM, 0.014 μM, and 0.005 μM.
The obtained reaction mixtures were incubated in the wells for 45 minutes at room temperature, allowing PLK1-catalyzed phosphorylation of the substrate to proceed. The plates were then washed with 1×PBST solution using a plate washer, such that the bound phosphorylated or unphosphorylated substrate remains attached to the wells upon washing.
The washed plates were developed by treating the plates with a primary antibody that is specific for the phosphorylated substrate, followed by treatment with a secondary antibody that is specific for the primary antibody, and that is capable of catalyzing a reaction that results in a chemiluminescent readout. The chemiluminescent readout was used to quantify the substrate phosphorylation, and, consequently, to determine IC50 values for PLK1 inhibition, and was measured using a luminometer (Perkin Elmer/Wallac plate reader). The plate development protocol is described below.
A mixed antibody solution E was prepared by adding 1 μL of the primary antibody, rabbit p-CHK2(T68) (Rockland, Catalog No. 401280), and 1 μL of the secondary antibody, HRP-goat anti-rabbit IgG (Jackson Immunoresearch Catalog No. 111-035-003) to 10000 μL of 0.1% BSA in 1×PBST buffer. […]

Assay [2] addresses T1, PLK1. The assay is described as follows: Cellular PLK1 assay in K562 cells overexpressing CDC25C. The assay is classed as cell-based. Details: endogenous in cells; host or cells: K562 (human chronic myelogenous leukemia) overexpressing CDC25C, nocodazole-arrested. The note with it: nocodazole arrested, cdc25c p-Ser198 readout. The procedure: as §1
1. Culturing of K562 Cells
Human chronic myelogenous leukemia K562 cells (American Tissue Culture Collection) overexpressing CDC25C, were grown in Growth Medium having the following composition: Iscove Dulbecco's Modified Eagle's Medium (“Iscove DMEM”, Mediatech/Cellgro, Cat. #10-013-CV), 10% Fetal Bovine Serum (“FBS”, SAFC Biosciences, Cat. #12106-500M), and 1% penicillin/streptomycin (“pen-strep”, Mediatech/Cellgro, Cat. #30-002-CI). The cells were plated in 96 well round bottom tissue culture plates (Fisher, Costar* Cell Culture plates, Cat. #07-200-95) at 100,000 cells per 50 μL of Growth Medium per well. Nocodazole (Sigma, Cat. # M1404) was added to the growth media to arrest the cells in the G2 or M phase, at 333 nM concentration. The cells were incubated with nocodazole for 18 hours at 37° C. prior to addition of tested compounds.
2. Treatment of Cells with the Tested Compounds
Solutions of tested compounds in DMSO at different concentrations were prepared using serial dilutions. Each compound was tested at 8 concentration points, 10 μM, 3.3 μM, 1.11 μM, 0.37 μM, 0.12 μM, 0.04 μM, 0.014 μM, 0.005 μM, duplicate replicates.
Two controls were performed: “DMSO alone” control in which nocodazole and DMSO were present but no compounds were added, and “nocodazole alone” control, in which only nocodazole was present, but neither DMSO nor compounds were added.
The solutions of compounds were prepared by diluting 10 mM compound 1:1 in DMSO (5 μL 10 mM compound and 5 μL DMSO), followed by 1:3 serial dilutions of compound in DMSO performed by diluting 3 μL of higher concentration compound solution serially into 6 μL DMSO to give 3-fold dilutions. Next, 3 μL of each compound solution at each concentration was transferred to 750 μL of Growth Medium. In “DMSO alone” control 3 μL of DMSO alone was added to 750 μL of Growth Medium.
After the diluted compounds were mixed well in the Growth Medium, 50 μL of each compound solution in DMSO/Growth Medium was transferred to each well of the 96-plate containing cells in 50 μL of Growth Medium/Nocodazole.
The cells and compounds were incubated for 120 minutes at 37° C., in an atmosphere containing 5% CO2.
3. Fixation and Permeabilization of the Cells
After the cells were incubated with compounds, the cells were spun down at 1,000 rpm for 5 minutes at 4° C. and supernatants were removed by flicking the plates. Cells were then washed with 200 μl of ice cold PBS, spun down again and supernatants removed. Cells were then fixed and permeabilized by addition of 100 μL/well of Fixation and Permeabilization Solution (1× buffer provided in BD Biosciences Cytofix/Cytoperm™ Fixation/Permeabilization kit, Cat. #554714) and incubation for 20 minutes at room temperature. The fixative was then removed by centrifugation (5 minutes at 2,000 rpm), and plates were flicked to remove the fixative and washed twice, each time with 200 μL/well BD Perm/Wash buffer (10× concentrate provided in BD Biosciences Cytofix/Cytoperm™ Fixation/Permeabilization kit, Cat. #554714, 1× buffer prepared by dilution in distilled H2O).
Cells were spun down at 1,000 rpm for 5 minutes at 4° C. Supernatants were removed by flicking the plates. A solution of a primary antibody specific for cdc25cp-Ser198 was prepared by diluting Rabbit cdc25c (Ser198) antibody (Cell Signaling, #9529L) 1:50 in a Fluorescence Activated Cell Sorting (“FACS”) Buffer (2% FBS in PBS). The cell pellets were resuspended in 50 μL of the primary antibody solution. 50 μL of FACS buffer was added to unstained controls. Staining was allowed to proceed overnight at room temperature.
The plates were then washed by addition of 200 μL of FACS Buffer to each well, were centrifuged and the supernatant was removed. […]

The mark [3] stands for this setting: ELISA, CHK2-derived peptide substrate, read-out: PLK1 IC50 (μM) biochemical assay.
The mark [4] stands for this setting: read-out: IC50 in biochemical in vitro PLK1 ELISA assay (less than 10 μM).

T1 sequence (P53350 whole entry): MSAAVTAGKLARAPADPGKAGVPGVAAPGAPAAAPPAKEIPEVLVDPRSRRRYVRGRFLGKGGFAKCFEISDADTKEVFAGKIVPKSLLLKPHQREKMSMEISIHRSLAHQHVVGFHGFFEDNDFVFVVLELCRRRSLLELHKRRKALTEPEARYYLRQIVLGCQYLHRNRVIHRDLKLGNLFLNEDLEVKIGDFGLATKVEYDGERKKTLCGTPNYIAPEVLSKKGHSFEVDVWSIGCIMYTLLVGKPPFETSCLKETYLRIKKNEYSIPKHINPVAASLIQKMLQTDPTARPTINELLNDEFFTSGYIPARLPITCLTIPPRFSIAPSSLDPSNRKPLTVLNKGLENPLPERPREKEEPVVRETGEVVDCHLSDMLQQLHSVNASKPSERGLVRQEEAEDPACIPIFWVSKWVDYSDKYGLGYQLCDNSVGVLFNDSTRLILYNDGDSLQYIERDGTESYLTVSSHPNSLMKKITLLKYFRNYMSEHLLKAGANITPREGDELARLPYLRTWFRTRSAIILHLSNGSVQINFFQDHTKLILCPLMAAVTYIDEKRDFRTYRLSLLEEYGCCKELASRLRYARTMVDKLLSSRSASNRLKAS

Take `CN1CCN(c2cccc(Nc3ncc(F)c(Nc4ccc5c(n4)NC(=O)C(C)(C)O5)n3)c2)CC1` [compound 161, 6-(5-fluoro-2-(3-(4-methylpiperazin-1-yl)phenylamino)pyrimidin-4-ylamino)-2,2-dimethyl-2H-pyrido[3,2-b][1,4]oxazin-3(4H)-one]: the IC50 at PLK1 [1] (setting [3]) was less than 0.5 µM; at PLK1 [1] (setting [4]), less than 10 µM; at PLK1 [2], 0.5 to 5 µM.
For `Cc1cnc(Nc2cccc(N3CCN(C)CC3)c2)nc1Nc1ccc2c(n1)N(Cc1ccc(F)cc1)C(=O)CO2` [compound 133, 4-(4-fluorobenzyl)-6-(5-methyl-2-(3-(4-methylpiperazin-1-yl)phenylamino)pyrimidin-4-ylamino)-2H-pyrido[3,2-b][1,4]oxazin-3(4H)-one], the IC50 at PLK1 [1] (setting [3]) was less than 0.5 µM; at PLK1 [1] (setting [4]) it was less than 10 µM; against PLK1 [2], 0.5 to 5 µM.
`CC(=O)N1CCN(c2cccc(Nc3ncc(F)c(Nc4ccc5c(n4)NCCO5)n3)c2)CC1` [compound 164, 1-(4-(3-(4-(3,4-dihydro-2H-pyrido[3,2-b][1,4]oxazin-6-ylamino)-5-fluoropyrimidin-2-ylamino)phenyl)piperazin-1-yl)ethanone] returned an IC50 against PLK1 [2] not below 10 µM.
Still for that read-out and setting: for `CN1CCN(c2ccc(Nc3ncc(F)c(Nc4ccc5c(n4)NCCO5)n3)cc2)CC1` [compound 166, N4-(3,4-dihydro-2H-pyrido[3,2-b][1,4]oxazin-6-yl)-5-fluoro-N2-(4-(4-methylpiperazin-1-yl)phenyl)pyrimidine-2,4-diamine] the value was not below 10 µM.
On PLK1 [2], `CCOC(=O)N1CCN(c2cccc(Nc3ncc(F)c(Nc4ccc5c(n4)NCCO5)n3)c2)CC1` [compound 165, ethyl 4-(3-(4-(3,4-dihydro-2H-pyrido[3,2-b][1,4]oxazin-6-ylamino)-5-fluoropyrimidin-2-ylamino)phenyl)piperazine-1-carboxylate] came in with a 50% inhibitory concentration (IC50) not below 10 µM.
For `CCOC(=O)N1CCN(c2ccc(Nc3ncc(F)c(Nc4ccc5c(n4)NCCO5)n3)cc2)CC1` [compound 163, ethyl 4-(4-(4-(3,4-dihydro-2H-pyrido[3,2-b][1,4]oxazin-6-ylamino)-5-fluoropyrimidin-2-ylamino)phenyl)piperazine-1-carboxylate], the 50% inhibitory concentration (IC50) on PLK1 [2] was not below 10 µM.
As to `CCN1CCN(c2ccc(Nc3ncc(C)c(Nc4ccc5c(n4)N(C)C(=O)CO5)n3)cc2)CC1` [compound 91, 6-(2-(4-(4-ethylpiperazin-1-yl)phenylamino)-5-methylpyrimidin-4-ylamino)-4-methyl-2H-pyrido[3,2-b][1,4]oxazin-3(4H)-one], the half-inhibitory concentration (IC50) against PLK1 [2] is not below 10 µM.
`CCN1CCN(c2ccc(Nc3ncc(C)c(Nc4ccc5c(n4)N(C)C(=O)C(C)(C)O5)n3)cc2)CC1` [compound 94, 6-(2-(4-(4-ethylpiperazin-1-yl)phenylamino)-5-methylpyrimidin-4-ylamino)-2,2,4-trimethyl-2H-pyrido[3,2-b][1,4]oxazin-3(4H)-one] displayed an IC50 against PLK1 [2] not below 10 µM.
The same measure, in the same setting: the result for `Cc1cnc(Nc2ccc(N3CCN(C)CC3)cc2)nc1Nc1ccc2c(n1)NC(=O)C(C)(C)O2` [compound 88, 2,2-dimethyl-6-(5-methyl-2-(4-(4-methylpiperazin-1-yl)phenylamino)pyrimidin-4-ylamino)-2H-pyrido[3,2-b][1,4]oxazin-3(4H)-one] reads not below 10 µM; that for `Cc1cc(Nc2ncc(C)c(Nc3ccc4c(n3)N(C)C(=O)C(C)(C)O4)n2)ccc1N1CCN(C)CC1` [compound 98, 2,2,4-trimethyl-6-(5-methyl-2-(3-methyl-4-(4-methylpiperazin-1-yl)phenylamino)pyrimidin-4-ylamino)-2H-pyrido[3,2-b][1,4]oxazin-3(4H)-one], not below 10 µM; that for `CCN1CCN(c2ccc(Nc3ncc(C)c(Nc4ccc5c(n4)NC(=O)C(C)(C)O5)n3)cc2)CC1` [compound 92, 6-(2-(4-(4-ethylpiperazin-1-yl)phenylamino)-5-methylpyrimidin-4-ylamino)-2,2-dimethyl-2H-pyrido[3,2-b][1,4]oxazin-3(4H)-one], not below 10 µM.
The same measure, in the same setting: the result for `Cc1cnc(Nc2ccc(N3CCN(C)CC3)nc2)nc1Nc1ccc2c(c1)N(C)C(=O)C(C)(C)O2` [compound 202, 2,2,4-trimethyl-6-(5-methyl-2-(6-(4-methylpiperazin-1-yl)pyridin-3-ylamino)pyrimidin-4-ylamino)-2H-benzo[b][1,4]oxazin-3(4H)-one] reads not below 10 µM.
